No end group written: not given here.

One experiment concerns TLR4 mRNA. Nature of the experiment: TLR4 mRNA level by RT-qPCR in hypoxic cardiomyocytes. As to conditions: hypoxic conditions. It is filed as cell-based. As for the experimental part:
(§1) Real-time RT-PCR experiments were performed in duplicates on an ABI 7900 instrument (Applied Biosystems™) using Taqman™ Master Mix (Applied Biosystems™). The average threshold cycles (Ct) of the duplicates were used to calculate the relative expression levels of the following genes: TLR4 (Applied Biosystems™ assay primer ID: Mm00569848_m1 Tlr4), TLR2 (assay primer ID: Mm01769726_m1 Tlr2), TNF-α (assay primer ID: Mm00443260_g1 Tnf) and IL-1β (assay primer ID: Mm00434228_m1 II1b) in vitro and in vivo following hypoxia or ischemia, respectively. The reference gene was TBP and the primer used was derived from mouse TATA-box binding protein (Applied Biosystems™ assay primer ID: Mm00446973_m1 Tbp). Amounts of TLR2, TLR4, TNF-α and IL-1β mRNAs in each sample were calculated relative to TBP mRNA, based on the corresponding Cts, as Relative Quantity (RQ) values, and normalized taking as 1 a randomly selected sample of the control group (TBP mRNA). Calculation were performed using the Applied Biosystems Analysis™ software (StepOnePlus V2.2.2). All mRNA scores are presented in arbitrary units.
Next, peptidomimetics of SEQ ID NOs:1 and 2 were tested for their ability to affect the expression of TLR4. The level of TLR4 mRNA was measured by real-time reverse transcriptase polymerase chain reaction (RT-qPCR) method as described in Materials and Methods. The possible effect of both compounds on expression levels of TLR2 mRNA was used as a negative control.
A general note: Quantitative PCR measures a nucleic acid by following its amplification.

The test system of experiment [1] is primary cardiomyocytes. In words: CK and LDH release by primary cardiomyocytes under LPS treatment (sepsis like). Type of experiment: cell-based, Rat. Conditions: LPS treatment; 20 μM. As for the experimental part:
(§2) Rat hearts (1-2 days old) were removed under sterile conditions and washed three times in phosphate-buffered saline (PBS) to remove excess blood cells. The hearts were minced and then gently agitated in RBD (a solution of proteolytic enzymes (Biological Institute, Ness-Ziona, Israel) prepared from fig tree extract, and diluted 1:100 in Ca^2+- and Mg^2+-free PBS) for a few cycles of 10 min each. Dulbecco's modified Eagle's medium (Biological Industries, Kibbutz Beit Haemek, Israel) containing 10% horse serum was added to supernatant suspensions containing the dissociated cells. The mixture was centrifuged at 1400 rpm for 4 min. The supernatant phase was discarded, and the cells were re-suspended. The cell suspension was diluted to 1.0×10^6 cells/ml, unless stated otherwise, and 1.5 ml of the suspension was placed in 35-mm plastic culture dishes collagen- or gelatin-coated, or on coated cover glasses. The cultures were incubated in a humidified atmosphere of 5% CO2 and 95% air at 37° C.
(§3) Primary cardiomyocytes which were obtained by method described above, were treated with exemplary decoy peptides described herein. After 30 minutes of incubation, sepsis like (LPS treatment for 6 hours), or myocardial infarction (MI) like (hypoxia for 3 hours) conditions were imposed to measure the release of CK and LDH to the medium and determine the potential cardioprotective effect of the tested decoy peptides. Cytotoxicity and level of cell damage were assessed by spectrophotometric measurement of lactate dehydrogenase (LDH) and creatine kinase (CK) activities (at 30° C.). Results are presented as CK and LDH release in arbitrary units (a.u.)
(§4) Activity of LDH and CK was determined in the cell-culture medium (25 μl) transferred into 96-well plates, using commercial L-LDH/CK kits (such as those manufactured, e.g., by Sigma-Aldrich, BioVision™ or Thermo Fisher Scientific®).
(§5) Primary cardiomyocytes were treated with peptides and peptidomimetics of SEQ ID NOs:1-7 provided at concentrations ranging from 1 μM to 20 μM. Following 30 minutes of incubation, sepsis like (LPS treatment for 6 hours) or MI like (hypoxia for 3 hours) conditions were induced to determine the potential cardioprotective effect of the tested compounds. Creatine kinase (CK) and lactate dehydrogenase (LDH) activity were assayed to determine the level of cellular damage and cell protection effect. The experimental procedure is described in Materials and Methods above. Results are presented as CK and LDH release in arbitrary units (a.u.).
For orientation: Release of lactate dehydrogenase indicates damage to the cell membrane.

In another experiment the test system is IL-1β mRNA. In words: IL-1β mRNA level by RT-qPCR in hypoxic cardiomyocytes. It is filed as cell-based. As to conditions: hypoxic conditions. As for the experimental part: as §1, with “Calculation were performed using the Applied Biosystems Analysis™ software (StepOnePlus V2.2.2). All mRNA scores are presented in arbitrary units.” left out
Decoy peptides represented by compounds PM1-PM10 were tested in vitro for their ability to decrease the level of CK and LDH released by stressed cardiomyocytes following exposure to LPS or hypoxic stimulation, and further evaluated for their ability to affect the level of IL-1β and TLR4 mRNA, and expression of IκB and TLR4 proteins, according to the protocols described in Materials and Methods and in Example 5 herein above.

Experiment [2] has as its system primary cardiomyocytes. Nature of the experiment: CK and LDH release by primary cardiomyocytes under hypoxia (MI like). Type of experiment: cell-based, Rat. As to conditions: 20 μM. As for the experimental part:
as §2
Using a vacuum pump, the oxygen rich air was evacuated from an incubator containing plates with cell cultures, and a 100% Argon atmosphere was let in, while maintaining a temperature of 37° C. The cell cultures were washed with PBS twice to remove glucose from the medium. Hypoxic treated cells were cultures in PBS without glucose. These cells lasted for 180 minutes.
as §3, §4, §5

The test system of a further experiment is TLR4 signaling. As to conditions: primary murine macrophages; cited from earlier work.
Experiment [3] relates to TLR4-driven inflammatory response. Conditions: mice, cited from earlier work.

Take `Cc1cn(Cc2ccccc2)c(=O)nc1NCCC(C)C` [PM2, 1-benzyl-4-(isopentylamino)-5-methylpyrimidin-2(1H)-one]: in the experiment on TLR4 mRNA, the “inhibition of TLR4 mRNA production” value was 2 fold. The CK release result in the experiment with primary cardiomyocytes [1] is reported as “no significant effect”; with primary cardiomyocytes [2], “significant reduction”. Also, the LDH release result was “no significant effect” in the experiment on primary cardiomyocytes [1] and “significant reduction” with primary cardiomyocytes [2]. In addition, the “inhibition of IL-1β mRNA production” value with IL-1β mRNA is on record as 1.3 fold.
With “IVFAEMPCG (Ac-IVFAEMPCG) [prior art decoy peptide derived from the TRAM TIR domain (Piao et al., 2013); used N-acetylated as positive control]”, in the experiment on TLR4 signaling, the TLR4 signaling result was “inhibited”. In experiment [3], the “LPS-induced activation of MyD88-dependent and TRIF-dependent cytokines and MAPKs” value is on record as “inhibited”. In addition, the survival result in experiment [3] (lethal LPS dose) was “dramatically improving”. Besides, the circulating cytokine levels result in experiment [3] (sublethal dose of LPS) is “significantly diminishing”.
